Reference: patent US9441012B2, “Fluorinated epoxyketone-based compounds and uses thereof as proteasome inhibitors” (FLUORINOV PHARMA INC., priority 2012, dated 2016)

Tests used:
[1] = target: T1, Caspase-like (C-L) proteasome activity (Mus musculus, UniProt Q60692); test: Proteasome subunit activity in murine red blood cells after oral administration; assay type: in vivo, NOD/SCID mice; conditions: oral gavage, Example 1 50 mg/kg, Example 26 60 mg/kg
T1 construct: RBCs were lysed with assay lysis buffer and incubated on ice for 30 minutes; from tissue; host or cells: red blood cells of NOD/SCID mice after oral dosing
T1 sequence (Q60692 1-238): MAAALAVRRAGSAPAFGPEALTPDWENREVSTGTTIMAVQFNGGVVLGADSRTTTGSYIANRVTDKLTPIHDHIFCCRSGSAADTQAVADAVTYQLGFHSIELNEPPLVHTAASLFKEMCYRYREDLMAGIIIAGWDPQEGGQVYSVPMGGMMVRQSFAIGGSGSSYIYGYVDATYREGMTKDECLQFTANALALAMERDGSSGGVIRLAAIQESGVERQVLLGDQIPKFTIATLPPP
Description: (§1) Cells were harvested by centrifugation at 1,200 rpm at room temperature. Cell pellets were washed with PBS and lysed with assay lysis buffer (50 mM HEPES (N-2-hydroxyethylpiperazine-N′-2-ethanesulfonic acid), pH 7.5; 150 mM NaCl; 1% Triton X-100; 2 mM ATP). Cell lysates were incubated on ice for 30 minutes, mixed by vortex every 5 minutes, and then centrifuged at 12,000 g for 10 minutes. The supernatant was transferred to a 96-well plate. For each assay, 10 μg of total protein were incubated for 1 hour at 37° C. with increasing concentrations (1 nM to 10 μM) of test compound diluted in assay buffer (50 mM Tris-HCl (tris(hydroxymethyl)aminomethane-HCl), pH 7.5; 150 mM NaCl). DMSO alone was used as a control in every assay plate. After incubation, a specific fluorogenic proteasome substrate was added to each assay reaction at a final concentration of 40 μM in a total volume of 100 μL. N-Succinyl-Leu-Leu-Val-Tyr-7-amino-4-methylcoumarin (Suc-Leu-Leu-Val-Tyr-AMC) was used for measuring chymotrypsin-like (CT-L) activity, t-butoxycarbonyl-Leu-Arg-Arg-7-amino-4-methylcoumarin (Boc-Leu-Arg-Arg-AMC) for trypsin-like (T-L) activity, and benzyloxycarbonyl-L-leucyl-L-leucyl-L-glutamyl-7-amino-4-methylcoumarin (Z-Leu-Leu-Glu-AMC) for caspase-like (C-L) activity. The excitation wavelength was set at 360 nm and the fluorescence emission wavelength of AMC was detected at 460 nm. The fluorescence of free AMC released during the enzymatic reaction was measured with a SpectraMax M5 fluorescent spectrophotometric plate reader (Molecular Devices, Sunnyvale, Calif.). AMC release rate was measured at 37° C. in a kinetic mode, recording every 5 minutes for 30 minutes. Experiments were performed in triplicate and repeated at least twice.
(§2) All mouse experiments were performed in accordance with approval from the Ontario Cancer Institute institutional animal review board. Five- to six-week-old male non-obese diabetic/severe combined immunodeficient (NOD/SCID) mice were grouped randomly (n=3 mice per group). Mice were administered vehicle (5% DMSO, 20% Cremophor) or compounds of Formula I at different doses either intravenously or by oral gavage, and venous blood samples (20-50 μL) were collected from each mouse over 24 hours. Blood samples were mixed with heparin (APP Pharmaceuticals; Schaumburg, Ill.) in 0.5 mL tubes in accordance with the manufacturer's instructions. After centrifugal separation at 3,000 g for 10 minutes, red blood cells (RBCs) in the bottom layer were transferred into a new tube and stored at −70° C. until use. RBCs were lysed with assay lysis buffer and incubated on ice for 30 minutes, mixing by vortex every 5 minutes, and then centrifuged at 12,000 g for 10 minutes. The supernatant was transferred to a 96-well plate and proteasome activity was measured as described in above for tumor cell lysates.
(§3) Proteasome subunit activity (Chymotrypsin-like, Trypsin-like, Caspase-like, CT-L, T-L, C-L, respectively) were monitored over the course of 24 hrs following […] administration of representative compounds of Formula I. NOD/SCID mice were treated with the compound from Example 1 (50 mg/kg by oral gavage) and the compound from Example 26 (60 mg/kg by oral gavage) or vehicle control for up to 24 hours, as described above.
(§4) Table 10 summarizes the data for the representative compounds of Formula (I); the compounds of Examples 1 and 26.

[2] = target: T2, Trypsin-like (T-L) proteasome activity (Mus musculus, UniProt P70195); test: as above; assay type: in vivo, NOD/SCID mice; conditions: oral gavage, Example 1 50 mg/kg, Example 26 60 mg/kg
T2 construct: RBCs were lysed with assay lysis buffer and incubated on ice for 30 minutes; from tissue; host or cells: red blood cells of NOD/SCID mice after oral dosing
T2 sequence (P70195 44-277): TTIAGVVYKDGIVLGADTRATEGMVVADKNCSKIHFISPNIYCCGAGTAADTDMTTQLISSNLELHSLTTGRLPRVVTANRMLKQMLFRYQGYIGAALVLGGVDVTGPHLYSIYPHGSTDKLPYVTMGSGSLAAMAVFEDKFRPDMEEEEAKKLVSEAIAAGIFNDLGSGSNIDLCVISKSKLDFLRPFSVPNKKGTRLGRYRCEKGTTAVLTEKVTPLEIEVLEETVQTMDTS
Description: as §1, §2, §3, §4

LP1 myeloma cells = test: Combination assays: viability of myeloma LP1 cells (MTS, combination index); assay type: cell-based, human
Description: To examine whether compounds of Formula I can be combined with other conventional and newer anti-multiple myeloma agents, such as dexamethasone and bortezomib, respectively, LP1 myeloma cells were treated for 72 hours with increasing concentrations of compounds of Formula I in combination with dexamethasone or bortezomib. After incubation, cell growth and viability was measured by the MTS assay. The combination index (CI) analysis, where a CI<1 indicates synergy between two drugs, a CI=1 indicates additivity, and a CI>1 indicates antagonism, was used to determine whether the cytotoxicity produced by the combinations with compounds of Formula I were synergistic, additive, or antagonistic.
The effects of combining these agents with a representative of compounds of Formula I i.e. the compound of Example 1 on the viability of myeloma LP1 cells in culture were assessed. LP1 cells were treated for 72 hours with increasing concentrations of the compound of Example 1 in combination with dexamethasone or bortezomib. After incubation, cell growth and viability was measured by the MTS assay.
The combination of the compound of Example 1 and bortezomib was synergistic with Combination Index values of 0.41, 0.46, and 0.88 at Fraction affected (Fa) levels of 0.39, 0.58, and 0.6, respectively (FIG. 2A).
The combination of the compound of Example 1 and dexamethasone was synergistic with Combination Index values of 0.41, 0.44, and 0.5 at Fraction affected levels of 0.43, 0.5, and 0.64, respectively (FIG. 2B).

[3] = system: AML2 mouse xenograft leukemia model; test: Leukemia AML2 xenograft model; assay type: in vivo; conditions: 30 mg/kg oral gavage
Description: Sublethally irradiated NOD-SCID mice bearing an established human tumor xenograft derived from RL and BALB/c mice challenged with the murine tumor cell line AML2 were treated twice weekly on days 1 and 2 (QD×2) with a dose of 30 mg/kg to 200 mg/kg of the compound of Example 1 by oral gavage. Dosing began on Day 6 post tumor challenge.

Compound	Caspase-like (C-L) mean residual activity relative to vehicle treated controls ([1]; 30 min) [%]	Caspase-like (C-L) mean residual activity relative to vehicle treated controls ([1]; 24 hrs) [%]	Caspase-like (C-L) mean residual activity relative to vehicle treated controls ([1]; time 0) [%]	Trypsin-like (T-L) mean residual activity relative to vehicle treated controls ([2]; 30 min) [%]	Trypsin-like (T-L) mean residual activity relative to vehicle treated controls ([2]; 24 hrs) [%]	Trypsin-like (T-L) mean residual activity relative to vehicle treated controls ([2]; time 0) [%]	Combination Index (LP1 myeloma cells; combination with bortezomib, Fraction affected 0.39, LP1, 72 hours)	Combination Index (LP1 myeloma cells; combination with bortezomib, Fraction affected 0.58, LP1, 72 hours)	Combination Index (LP1 myeloma cells; combination with bortezomib, Fraction affected 0.6, LP1, 72 hours)	Combination Index (LP1 myeloma cells; combination with dexamethasone, Fraction affected 0.43, LP1, 72 hours)	Combination Index (LP1 myeloma cells; combination with dexamethasone, Fraction affected 0.5, LP1, 72 hours)	Combination Index (LP1 myeloma cells; combination with dexamethasone, Fraction affected 0.64, LP1, 72 hours)	gross adverse effects including reductions in body weight or alterations in behaviour [3]	tumor growth inhibition ([3]; twice weekly days 1 and 2 (QD×2))
Cc1ncc(C(=O)N[C@@H](COC(F)F)C(=O)N[C@@H](COC(F)F)C(=O)N[C@@H](Cc2ccccc2)C(=O)[C@@]2(C)CO2)s1 [Example 1, 2-methyl-thiazole-5-carboxylic acid ((S)-1-{(S)-1-[(S)-1-benzyl-2-((R)-2-methyloxiranyl)-2-oxo-ethylcarbamoyl]-2-difluoromethoxyethylcarbamoyl}-2-difluoromethoxyethyl)-amide]	100	100	100	100	100	100	0.41	0.46	0.88	0.41	0.44	0.5	no observed gross adverse effects	greater than 40%
C[C@]1(C(=O)[C@H](Cc2ccccc2)NC(=O)[C@H](COC(F)F)NC(=O)[C@H](COC(F)F)NC(=O)CN2CCOCC2)CO1 [Example 26, (S)-N-{(S)-1-[(S)-1-Benzyl-2-((R)-2-methyl-oxiranyl)-2-oxo-ethylcarbamoyl]-2-difluoromethoxyethyl}-3-difluoromethoxy-2-(2-morpholin-4-yl-acetylamino)-propio-namide]	100	100	100	100	100	100	–	–	–	–	–	–	–	–
